The values that follow come from publication PMC8998904, “Identification and New Indication of Melanin-Concentrating Hormone Receptor 1 (MCHR1) Antagonist Derived from Machine Learning and Transcriptome-Based Drug Repositioning Approaches” (International Journal of Molecular Sciences, 2022).

In data set [1] the target is T1, human recombinant MCH-1 receptor (Homo sapiens, UniProt Q99705).
T1 construct: purchased Euroscreen S.A. (PerkinElmer)
Put plainly: Time-resolved fluorescence (TRF)-based MCHR1 receptor-binding assay with Eu-MCH. The conditions noted are these: for inhibition at 10 µM: TRF MCHR1 binding, read-out: inhibition rate (%) at 10 μM; for IC50: TRF-based binding, 2 nM Eu-MCH. How it is done: (§1) An in vitro time-resolved fluorescence (TRF)-based binding assay for MCHR1 was performed to identify the MCHR1 antagonist from the 19 predicted compounds selected through in silico screening. […] In addition, a patch clamp assay was performed to measure the cardiotoxicity of the five compounds. […] Consequently, of the five compounds, only KRX-104130 and KRX-104165 overcame cardiotoxicity.
The receptor-binding affinities of the generated 19 compounds were determined by time-resolved fluorescence (TRF)-based receptor-binding assays using europium-labeled MCH (Eu-MCH) in 96-well AcroWell™ plates. The MCH labeled with europium at the N-1 position was supplied by the Wallac Labeling Service (PerkinElmer, Inc., Waltham, MA, USA). The human recombinant MCH-1 receptor membrane preparation (MCH-1/SLC1 membrane) was obtained from Euroscreen S.A. (PerkinElmer). The binding assay buffer contained 25 mM 4-(2-hydroxyethyl)-1-piperazineethanesulfonic acid (HEPES; pH 7.4), 5 mM MgCl2, 1 mM CaCl2, and 0.5% bovine serum albumin. Total binding was determined from the binding reaction in the presence of 2 nM Eu-MCH and 5 μg/unit MCH-1 receptor membrane for 90 min. Nonspecific Eu–MCH binding was defined in the presence of 0.5 µM unlabeled MCH. After incubation for 90 min, the plate was washed three times with 300 µL of ice-cold 25 mM HEPES buffer (pH 7.4) in an automatic vacuum filtration system. The Eu was dissociated from the bound ligand by the addition of 150 µL of DELFIA enhancement solution (Perkin Elmer) and incubated for 10 min with shaking. Fluorescence signals from dissociated Eu were measured using a multilabel reader (Envision, PerkinElmer) with an excitation wavelength (340 nm) and an emission wavelength (615 nm).

A further data set has as its target T2, hERG channel (Homo sapiens, UniProt Q12809).
T2 construct: host or cells: HEK293
Description: Patch clamp assay on HEK293-hERG cells. The format is cell-based. How it is done:
as §1
Patch clamp assays were performed on HEK293 cells stably expressing the hERG channel (HEK293-hERG cells; Genionics, Switzerland). When the cells were more than 80% confluent, they were freshly dislodged from flasks with 0.05% trypsin–EDTA for 1–2 min, spun down twice at 700× g, suspended into the extracellular solution (in mmol/L at 1.8 × 10^6 per mL: 137 NaCl, 4 KCl, 1 MgCl2, 1.8 CaCl2, 10 HEPES, and 10 glucose, pH 7.4, adjusted with NaOH), and dispensed into a patch clamp plate. The cell density was adjusted to 2–3 × 10^5 cells/mL. After dispensing, the cells were applied to the AutoPatch system (PatchXpress 7000A, Molecular Devices, Sunnyvale, CA, USA). The hERG currents were evoked by two voltage pulses at 3 s interval. The voltage pulse consisted of a 100-ms step to −30 mV, a conditioning prepulse (2 s duration, +25 mV or +45 mV), followed by a test pulse (2 s duration, −30 mV) from a holding potential of −70 mV. After a 3 s interval at −70 mV, a second pulse protocol was applied, consisting of a 100-ms step to −30 mV, a prepulse (2 s duration, +45 mV), followed by a test pulse (2 s duration, −30 mV). Leak currents were linearly subtracted, extrapolating the current elicited by a 100-ms step to −80 mV from a holding potential of −70 mV. The experiment was initiated with a buffer control in the absence of the drug to calculate the IC50. The test compound was applied at low to high concentrations, and the tail current was monitored continuously. The compound effects were tested using six concentrations in three-fold dilutions from 1 to 300 µM.

The nature of data set [2]: Plasma pharmacokinetic profile in mice (I.V. and P.O.). As to conditions: mice, pharmacokinetic study.

T2 sequence (Q12809 whole entry): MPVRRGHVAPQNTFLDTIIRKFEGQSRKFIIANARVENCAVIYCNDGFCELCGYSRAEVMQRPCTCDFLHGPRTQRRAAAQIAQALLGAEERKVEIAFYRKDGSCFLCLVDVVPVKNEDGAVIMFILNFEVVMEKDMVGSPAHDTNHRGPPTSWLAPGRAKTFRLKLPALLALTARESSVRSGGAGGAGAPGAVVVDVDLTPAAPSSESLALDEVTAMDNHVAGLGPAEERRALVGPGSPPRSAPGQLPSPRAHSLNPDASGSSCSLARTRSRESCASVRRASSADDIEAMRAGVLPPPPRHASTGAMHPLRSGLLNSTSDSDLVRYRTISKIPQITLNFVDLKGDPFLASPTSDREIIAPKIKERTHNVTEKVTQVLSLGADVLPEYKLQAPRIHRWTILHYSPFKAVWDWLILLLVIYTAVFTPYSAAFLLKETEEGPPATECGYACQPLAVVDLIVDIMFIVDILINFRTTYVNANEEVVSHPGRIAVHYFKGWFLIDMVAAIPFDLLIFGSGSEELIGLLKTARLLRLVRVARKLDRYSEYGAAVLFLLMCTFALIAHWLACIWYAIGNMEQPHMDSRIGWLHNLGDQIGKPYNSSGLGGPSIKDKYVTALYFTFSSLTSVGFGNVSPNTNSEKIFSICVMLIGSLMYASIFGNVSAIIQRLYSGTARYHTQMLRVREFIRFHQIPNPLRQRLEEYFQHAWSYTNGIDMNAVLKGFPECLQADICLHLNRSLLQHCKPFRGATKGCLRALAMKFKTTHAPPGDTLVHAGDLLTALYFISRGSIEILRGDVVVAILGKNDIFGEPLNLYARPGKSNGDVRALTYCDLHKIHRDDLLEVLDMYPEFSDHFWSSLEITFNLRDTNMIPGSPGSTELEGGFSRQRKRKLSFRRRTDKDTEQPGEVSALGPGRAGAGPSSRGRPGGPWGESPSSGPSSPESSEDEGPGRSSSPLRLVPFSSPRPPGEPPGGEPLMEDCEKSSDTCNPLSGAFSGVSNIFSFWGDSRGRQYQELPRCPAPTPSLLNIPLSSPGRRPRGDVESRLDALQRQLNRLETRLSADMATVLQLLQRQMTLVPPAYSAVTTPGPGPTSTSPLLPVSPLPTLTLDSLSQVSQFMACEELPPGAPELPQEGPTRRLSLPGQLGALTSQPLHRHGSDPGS
T1 sequence (Q99705 whole entry): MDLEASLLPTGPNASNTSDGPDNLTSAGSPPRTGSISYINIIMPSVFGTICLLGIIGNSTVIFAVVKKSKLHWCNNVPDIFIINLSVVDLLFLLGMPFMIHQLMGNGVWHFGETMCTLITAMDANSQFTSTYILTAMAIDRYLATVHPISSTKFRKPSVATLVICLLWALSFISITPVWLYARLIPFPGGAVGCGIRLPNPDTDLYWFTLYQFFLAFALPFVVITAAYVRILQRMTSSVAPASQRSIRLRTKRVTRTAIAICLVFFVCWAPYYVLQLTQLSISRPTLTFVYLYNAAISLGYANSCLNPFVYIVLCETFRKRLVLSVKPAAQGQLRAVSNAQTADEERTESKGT

On to `CCN(CC)CCN(C)c1cnc2cc(NC(=O)c3ccc(-c4ccc(Cl)cc4)cc3)ccc2n1` [KRX-104137], for which, in data set [1], the inhibition (usually how much of the control response was suppressed) at 10 µM came out at 96% and the concentration for half-maximal inhibition (IC50) (as a rule, the concentration that gives 50% inhibition) worked out at 10 nM. This compound displayed an IC50 against hERG channel of 420 nM.
For the compound `COc1nc2cc(F)c(F)cc2nc1NC(=O)NC1CCN(Cc2ccc3[nH]ccc3c2)CC1` [KRX-104156], the inhibition at 10 µM in data set [1] was found to be 100%. The results for the IC50 (in data set [1]; against hERG channel) were 50 nM and 920 nM, respectively.
On to `COc1nc2cc(F)c(F)cc2nc1NC(=O)NC1CCN(Cc2ccc3[nH]ncc3c2)CC1` [KRX-104161], for which, in data set [1], the inhibition at 10 µM was determined as 94.8% and the IC50 turned out to be 10 nM. In addition, the half-inhibitory concentration (IC50) against hERG channel amounted to 180 nM.
Consider `COc1nc2cc(F)c(F)cc2nc1NC(=O)NC1CCN(Cc2cn(C(C)=O)c3ccccc23)CC1` [KRX-104165], for which, in data set [2], the “Tolerability / death after administration to mice” value is “the mouse died immediately after administration”. Besides, in data set [1], the inhibition at 10 µM is 94.3% and the IC50 was 60 nM. For the same compound, the IC50 on hERG channel is more than 50000 nM.
